# Data reported in ChEMBL document CHEMBL2086371, “4-quinolones as noncovalent inhibitors of high molecular mass penicillin-binding proteins” (ACS Med Chem Lett, 2012).
# Calls of active or inactive are those of the source. The calls are words filed in the database; no cut-off is given here.
# Experiments:
# [1] = system: Escherichia coli; assay: Antibacterial activity against Escherichia coli MM 294 after 20 hrs by tube dilution method; format: functional; details: MM 294, 20 h
# [2] = system: Escherichia coli; assay: Inhibition of bocillin FL binding to PBP 5/6 in Escherichia coli MM 294 membrane preparation at 1 mM by gel electrophoresis; format: cell membranes
# [3] = Inhibition of bocillin FL binding to PBP 3 in Escherichia coli MM 294 membrane preparation by gel electrophoresis; format: cell membranes
# [4] = Inhibition of bocillin FL binding to PBP 1a/1b in Escherichia coli MM 294 membrane preparation by gel electrophoresis; format: cell membranes
# [5] = system: Bacillus subtilis; assay: Inhibition of bocillin FL binding to Bacillus subtilis PBP3/4 at 1 mM by gel electrophoresis
# [6] = system: Escherichia coli; assay: Inhibition of bocillin FL binding to Escherichia coli MM 294 PBP by whole-cell assay
# [7] = system: Bacillus subtilis; assay: Inhibition of bocillin FL binding to Bacillus subtilis PBP5 at 1 mM by gel electrophoresis
# [8] = system: Bacillus subtilis; assay: Inhibition of bocillin FL binding to Bacillus subtilis PBP2 at 1 mM by gel electrophoresis
# [9] = system: Bacillus subtilis; assay: Inhibition of bocillin FL binding to Bacillus subtilis PBP1 at 1 mM by gel electrophoresis
# [10] = Inhibition of bocillin FL binding to PBP 2 in Escherichia coli MM 294 membrane preparation by gel electrophoresis; format: cell membranes
# [11] = system: Bacillus subtilis; assay: Antibacterial activity against Bacillus subtilis after 20 hrs by tube dilution method; format: functional, organism-based
# [12] = Inhibition of bocillin FL binding to PBP 4 in Escherichia coli MM 294 membrane preparation by gel electrophoresis; format: cell membranes
# [13] = system: Escherichia coli; assay: Inhibition of bocillin FL binding to PBP 3 in Escherichia coli MM 294 membrane preparation at 1 mM by gel electrophoresis; format: cell membranes
# [14] = system: Escherichia coli; assay: Inhibition of bocillin FL binding to PBP 4 in Escherichia coli MM 294 membrane preparation at 1 mM by gel electrophoresis; format: cell membranes
# [15] = system: Escherichia coli; assay: Inhibition of bocillin FL binding to PBP 1a/1b in Escherichia coli MM 294 membrane preparation at 1 mM by gel electrophoresis; format: cell membranes
# [16] = system: Escherichia coli; assay: Inhibition of bocillin FL binding to PBP 2 in Escherichia coli MM 294 membrane preparation at 1 mM by gel electrophoresis; format: cell membranes
# [17] = Inhibition of bocillin FL binding to PBP 5/6 in Escherichia coli MM 294 membrane preparation by gel electrophoresis; format: cell membranes
# [18] = system: Escherichia coli; assay: Inhibition of bocillin FL binding to Escherichia coli MM 294 PBP 5/6 by cell-free assay
# [19] = Inhibition of bocillin FL binding to Escherichia coli MM 294 PBP2 by cell-free assay
SMILES,MIC [1],inhibition [2],inhibition [5],inhibition [6],inhibition [7],inhibition [8],inhibition [9],inhibition [13],inhibition [18],Ki [3],Ki [4],Ki [10],Activity [11],Ki [12],inhibition [14],inhibition [15],inhibition [16],Ki [17],Ki [19]
Oc1ccnc2ccccc12,–,inactive,–,–,–,–,–,inactive,–,–,–,–,–,–,inactive,inactive,inactive,–,–
O=c1cc(CO)[nH]c2ccccc12,> 1000 µM,–,Active,inactive,Active,Active,Active,–,inactive,27 µM,27 µM,26 µM,inactive,4.8 µM,–,–,–,220 µM,64 µM
Oc1cccc2nccc(O)c12,> 1000 µM,inactive,Active,inactive,Active,Active,Active,inactive,–,–,–,–,inactive,–,inactive,inactive,inactive,–,–
O=c1cc[nH]c2cc(O)ccc12,> 1000 µM,inactive,Active,inactive,Active,Active,Active,inactive,–,–,510 µM,89 µM,inactive,55 µM,–,–,–,–,–
O=c1cc(CCCO)[nH]c2ccccc12,> 1000 µM,inactive,Active,inactive,Active,Active,Active,–,–,120 µM,49 µM,50 µM,inactive,6.1 µM,–,–,–,–,–

# More lines, main results first:
MIC [1],inhibition [2],inhibition [5],inhibition [6],inhibition [7],inhibition [8],inhibition [9],inhibition [13],inhibition [18],SMILES,Ki [3],Ki [4],Ki [10],Activity [11],Ki [12],inhibition [14],inhibition [15],inhibition [16],Ki [17],Ki [19]
> 1000 µM,inactive,Active,inactive,Active,Active,Active,–,–,O=C(O)c1cc(=O)c2ccccc2[nH]1 [TRANSTORINE],950 µM,470 µM,210 µM,inactive,37 µM,–,–,–,–,–
> 1000 µM,inactive,Active,inactive,Active,Active,Active,–,–,O=c1c(CCO)c[nH]c2ccccc12,70 µM,38 µM,27 µM,inactive,3.1 µM,–,–,–,–,–
> 1000 µM,inactive,Active,inactive,Active,Active,Active,inactive,–,O=C(O)Cc1c[nH]c2ccccc2c1=O,–,300 µM,250 µM,inactive,29 µM,–,–,–,–,–
> 1000 µM,–,Active,inactive,Active,Active,Active,–,–,O=c1cc(CCO)[nH]c2ccccc12,120 µM,37 µM,26 µM,inactive,7 µM,–,–,–,520 µM,–
